Experimental data reported in patent publication US20230114728A1 (Venatorx Pharmaceuticals, Inc., priority 2019, published 2023).
≈ marks a conversion by molar mass, not a printed value.

Legend:
[1] = Bocillin-FL fluorescence polarization competition binding assay, A. baumannii PBP3; conditions: fluorescence polarization competition binding assay using Bocillin-FL; column 3; read-out: 4. baumannii PBP1a Potency
Text: Example I: Experimental Method for Penicillin-Binding Protein Binding Assays with Bocillin-FL Via Fluorescence Polarization
To determine the ability of boronic acid-based test PBP inhibitors to bind Penicillin Binding Proteins (PBPs), Bocillin-FL (fluorescently-labeled penicillin V; ThermoFisher Scientific) was used in a fluorescence polarization (FP) competition binding assay to assess inhibitor binding to PBP2, PBP3 or PBP4 from Escherichia coli (K12), PBP3 from Pseudomonas aeruginosa (PA01), PBP1a, PBP2 and PBP3 from Acinetobacter baumannii (ATCC 19606), and PBP2 from Neiserria gonorrheae (FA19). PBPs were cloned and purified as described previously (E. coli PBPs, King, D. T, et al., ACS Infectious Diseases 2015, 1, 175-184; P. aeruginosa PBP3, Han et. al., PNAS 2010, 107 (51), 22002-22007; A. baumannii PBPs, Penwell et. al., Antimicrob. Agents Chemother. 2015, 59 (3), 1680-1689; N. gonorrhoeae PBP2, Singh et. al., J Biol. Chem. 2019, 294 (38), 14020-14032). To establish assay conditions for competition binding, enzyme titration/saturation binding experiments were initially performed. Bocillin-FL was prepared at 0.2 μM in a buffer comprised of 50 mM Hepes (pH 8.0), 300 mM NaCl and 5% (v/v) glycerol for reactions with E. coli, P. aeruginosa and N. gonorrhoeae PBPs, and 25 mM Tris (pH 8.0), 200 mM NaCl and 10% (v/v) glycerol and 0.005% (v/v) Tween 20 for reactions with A. baumannii PBPs. Saturation binding was performed by mixing 40 μl of PBP solutions ranging in concentrations from 0-24 μM with 40 μl of the 0.2 μM Bocillin-FL solution, in individual wells of a black 384-well microplate. FP was measured immediately upon mixing (Excitation, 490 nm; Emission, 520 nm; g-factor, 0.96), using a Cytation3 (BioTek) microplate reader and measured continuously for up to 120 minutes. […] The competition binding assay (80 μl final volume) was validated using beta-lactams and PBPs at final concentrations of: 1.5 μM, E. coli PBP3; 0.75 μM, P. aeruginosa PBP3; 1 μM A. baumannii PBP1a; 2.5 μM A. baumannii PBP2; 0.2 μM A. baumannii PBP3; and […] N. gonorrhoeae PBP2. Bocillin-FL was at 0.1 μM (0.05 μM with A. baumannii PBP1a) and beta-lactam concentrations ranged from 0-1000 μM. […] Bocillin-FL was added and the FP immediately measured for up to 60 minutes (90 minutes for E. coli PBP2). […] The beta-lactam potency was reported as the concentration of beta-lactam required to reduce the amount of PBP bound-Bocillin-FL by 50% (EC50). […] Binding assays for boronic acid PBP inhibitors were performed in an identical fashion for the respective PBPs

[2] = test system: A. baumannii CDC-0033 producing NDM-1, and OXA-94; test: Broth microdilution MIC in iron-depleted CAMHB (IDM); assay type: cell-based; conditions: Acinetobacter baumannii, read-out: Minimum Inhibitory Concentration, CDC-0033
Method: (§1) Example IV: In Vitro Antibacterial Assays in Iron-Depleted Cation-Adjusted Mueller-Hinton Broth
(§2) To determine the ability of test compounds to inhibit the growth bacterial strains under conditions of iron-depletion, classic cell based broth microdilution minimum inhibitory concentration (MIC) assays were employed. MIC assays are performed according to CLSI methods except where otherwise noted (CLSI, 2018 and CLSI, 2019). The reference type strain E. coli ATCC 25922 was used to determine the ability of the PBP inhibitors to inhibit the growth of Enterobacteriaceae. Wild-type P. aeruginosa ATCC 27853, A. baumannii ATCC 17978 and A. baumannii ATCC 19606, along with the hyper-permeable P. aeruginosa ATCC 35151, an engineered efflux pump-compromised strain of P. aeruginosa (ΔmexAB-oprM), and an engineered efflux-pump compromised strain of A. baumannii IL123 (ABΔ3-ARAEcPore) were used to determine the ability of PBP inhibitors to penetrate the outer membrane of P. aeruginosa and A. baumannii and assess antibacterial activity against these important gram-negative organisms.
(§3) Briefly, cryo-preserved bacterial cultures of challenge strains are streaked for isolation on appropriate agar medium, in this case cation-adjusted Mueller Hinton agar. Following incubation to allow growth of the colonies, plates are sealed with parafilm and stored refrigerated for up to two weeks. For preparation of assay inoculum and to ensure low variability, at least 5 colonies are picked from the agar plates with an inoculating loop and aseptically transferred to a culture tube containing 3 mL of iron-depleted cation-adjusted Mueller Hinton broth (IDM)—see below for IDM preparation. The broth culture is grown for 3-5 hours at 37° C. with shaking at 200 rpm. Meanwhile, 2-fold serial dilutions of test compounds are conducted in a 96-well plate with a final volume of 75 μL per well at 2-fold the final desired concentration. After the dilution plates are set up the growing cultures are then diluted in a cuvette containing IDM and the optical density is measured at 600 nm. The inoculum is diluted such that 75 μL of this culture in IDM results in a starting bacterial concentration of 2-8×10^5 CFU/mL when added to the dilution plates. The plates are incubated for 16-20 hours for Enterobacteriaceae and Pseudomonas and 20-24 hours for Acinetobacter at 37° C. The MIC values are read visually as the lowest concentration well with no bacterial growth.
(§4) Method for Iron-Depleted Cation-Adjusted Mueller Hinton Broth (IDM) Preparation:
(§5) • Prepare cation-adjusted Mueller Hinton broth as per the manufacturer's recommendations and autoclave. • Add 100 g/L Chelex 100 resin, cover with foil and incubate with stirring for 2 hours • Remove Chelex 100 resin by filtration with 0.45 μm filter flask • Add the following back to the medium: • CaCl2 dihydrate: 82.5 mg/L • MgCl2 hexahydrate: 94.1 mg/L • ZnSO4: 10 μM • Adjust pH of medium to 7.3 with 5 N HCl • Sterilize using a 0.22 µm filter flask

[3] = test system: A. baumannii CDC-0036 OXA-65, and OXA-24; test: as above; assay type: cell-based; conditions: Acinetobacter baumannii, read-out: Minimum Inhibitory Concentration, CDC-0036
Method: as §1, §2, §3, §4, §5

[4] = test system: P. aeruginosa ATCC 35151; test: as above; assay type: cell-based; conditions: Pseudomonas aeruginosa, ATCC35151; iron-depleted MHB (IDM); hyper-permeable strain; read-out: Minimum Inhibitory Concentration, P. aeruginosa ATCC 35151
Method: as §1, §2, §3, §4, §5

[5] = test system: A. baumannii CDC-0083 producing NDM-1, PER-7, OXA-23, and OXA-69; test: as above; assay type: cell-based; conditions: Acinetobacter baumannii, read-out: Minimum Inhibitory Concentration, CDC-0083
Method: as §1, §2, §3, §4, §5

[6] = test system: A. baumannii ATCC 17978; test: as above; assay type: cell-based; conditions: Acinetobacter baumannii, ATCC17978, read-out: Minimum Inhibitory Concentration, ATCC 17978
Method: as §1, §2, §3, §4, §5

[7] = test system: P. aeruginosa (ΔmexAB-oprM); test: as above; assay type: cell-based; conditions: Pseudomonas aeruginosa, read-out: Minimum Inhibitory Concentration, P. aeruginosa ΔmexAB-OprM
Method: as §1, §2, §3, §4, §5

[8] = test system: P. aeruginosa CDC-0054 producing VIM-4, OXA-50, and PAO; test: as above; assay type: cell-based; conditions: Pseudomonas aeruginosa, read-out: Minimum Inhibitory Concentration, P. aeruginosa CDC-0054
Method: as §1, §2, §3, §4, §5

[9] = test system: A. baumannii ATCC 19606; test: as above; assay type: cell-based; conditions: Acinetobacter baumannii, ATCC19606, read-out: Minimum Inhibitory Concentration, ATCC 19606
Method: as §1, §2, §3, §4, §5

[10] = test system: P. aeruginosa ATCC 27853; test: as above; assay type: cell-based; conditions: Pseudomonas aeruginosa, ATCC27853, read-out: Minimum Inhibitory Concentration, P. aeruginosa ATCC 27853
Method: as §1, §2, §3, §4, §5

[11] = test system: P. aeruginosa CDC-0110; test: as above; assay type: cell-based; conditions: Pseudomonas aeruginosa, CDC0110, read-out: Minimum Inhibitory Concentration, P. aeruginosa CDC-0110
Method: as §2, §3, §4, §5

[12] = test system: A. baumannii CDC-0045 producing TEM-1D, OXA-23, and OXA-69; test: as above; assay type: cell-based; conditions: Acinetobacter baumannii, read-out: Minimum Inhibitory Concentration, CDC-0045

CCN1CCN(C(=O)N[C@@H](C(=O)N[C@H]2Cc3ccc(F)c(C(=O)O)c3OB2O)c2c(F)c(F)c(O)c(O)c2Cl)C(=O)C1=O [Example 228, (R)-3-((R)-2-(2-chloro-5,6-difluoro-3,4-dihydroxyphenyl)-2-(4-ethyl-2,3-dioxopiperazine-1-carboxamido)acetamido)-7-fluoro-2-hydroxy-3,4-dihydro-2H-benzo[e][1,2]oxaborinine-8-carboxylic acid]
EC50 [1]: 10 to 30 µM | MIC [2]: 2 to 4 mg/L (≈ 3.18 to 6.36 µM) | MIC [3]: 2 to 4 mg/L (≈ 3.18 to 6.36 µM) | MIC [4]: 0.25 mg/L (≈ 0.398 µM) | MIC [5]: 2 to 4 mg/L (≈ 3.18 to 6.36 µM) | MIC [6]: 0.5 to 1 mg/L (≈ 0.795 to 1.59 µM) | MIC [7]: 0.25 mg/L (≈ 0.398 µM) | MIC [8]: 2 to 4 mg/L (≈ 3.18 to 6.36 µM) | MIC [9]: 0.25 mg/L (≈ 0.398 µM) | MIC [10]: 0.5 to 1 mg/L (≈ 0.795 to 1.59 µM) | MIC [11]: 0.5 to 1 mg/L (≈ 0.795 to 1.59 µM) | MIC [12]: 2 to 4 mg/L (≈ 3.18 to 6.36 µM)
